Results as given in article PMC5814754, “Quantitative, Wide-Spectrum Kinase Profiling in Live Cells for Assessing the Effect of Cellular ATP on Target Engagement” (Cell Chemical Biology, 2018).

Assays:
Experiment in all cases: Apparent affinity (EC50) of energy transfer probes by titration onto live HEK293 cells expressing kinase/Nluc fusions (Table S1)
Type in all cases: binding
[1] = molecular target: full-length kinase/Nluc fusion proteins (Homo sapiens, UniProt P42685); settings: FRK, Nluc C; read-out: Probe EC50
[2] = molecular target: full-length kinase/Nluc fusion proteins (Homo sapiens, UniProt P09619); settings: PDGFRB, Nluc C; read-out: Probe EC50
[3] = molecular target: full-length kinase/Nluc fusion proteins (Homo sapiens, UniProt P53671); settings: LIMK2, Nluc C; read-out: Probe EC50
[4] = molecular target: full-length kinase/Nluc fusion proteins (Homo sapiens, UniProt Q13882); settings: PTK6, Nluc C; read-out: Probe EC50
[5] = molecular target: full-length kinase/Nluc fusion proteins (Homo sapiens, UniProt Q15759); settings: MAPK11, Nluc N; read-out: Probe EC50
[6] = molecular target: full-length kinase/Nluc fusion proteins (Homo sapiens, UniProt P51813); settings: BMX, Nluc C; read-out: Probe EC50
[7] = molecular target: full-length kinase/Nluc fusion proteins (Homo sapiens, UniProt P29597); settings: TYK2 (NP_003322), Nluc orientation C; read-out: Probe EC50
[8] = molecular target: full-length kinase/Nluc fusion proteins (Homo sapiens, UniProt Q9HAZ1); settings: CLK4, Nluc C; read-out: Probe EC50
[9] = molecular target: full-length kinase/Nluc fusion proteins (Homo sapiens, UniProt Q8WU08); settings: STK32A (NP_001106195), Nluc orientation N; read-out: Probe EC50
[10] = molecular target: full-length kinase/Nluc fusion proteins (Homo sapiens, UniProt Q92630); settings: DYRK2, Nluc C; read-out: Probe EC50
[11] = molecular target: full-length kinase/Nluc fusion proteins (Homo sapiens, UniProt P08581); settings: MET, Nluc C; read-out: Probe EC50
[12] = molecular target: full-length kinase/Nluc fusion proteins (Homo sapiens, UniProt Q13237); settings: PRKG2, Nluc C; read-out: Probe EC50
[13] = molecular target: full-length kinase/Nluc fusion proteins (Homo sapiens, UniProt Q9Y4K4); settings: MAP4K5, Nluc C; read-out: Probe EC50
[14] = molecular target: full-length kinase/Nluc fusion proteins (Homo sapiens, UniProt P31152); settings: MAPK4, Nluc N; read-out: Probe EC50
[15] = molecular target: full-length kinase/Nluc fusion proteins (Homo sapiens, UniProt P21802); settings: FGFR2, Nluc C; read-out: Probe EC50
[16] = molecular target: full-length kinase/Nluc fusion proteins (Homo sapiens, UniProt P80192); settings: MAP3K9, Nluc N; read-out: Probe EC50
[17] = molecular target: full-length kinase/Nluc fusion proteins (Homo sapiens, UniProt Q02156); settings: PRKCE, Nluc C; read-out: Probe EC50
[18] = molecular target: full-length kinase/Nluc fusion proteins (Homo sapiens, UniProt P52333); settings: JAK3, Nluc C; read-out: Probe EC50
[19] = molecular target: full-length kinase/Nluc fusion proteins (Homo sapiens, UniProt P11362); settings: FGFR1, Nluc C; read-out: Probe EC50
[20] = molecular target: full-length kinase/Nluc fusion proteins (Homo sapiens, UniProt P50613); settings: CDK7, Nluc C; read-out: Probe EC50
[21] = molecular target: full-length kinase/Nluc fusion proteins (Homo sapiens, UniProt Q06187); settings: BTK, Nluc C; read-out: Probe EC50
[22] = molecular target: full-length kinase/Nluc fusion proteins (Homo sapiens, UniProt P33981); settings: TTK (NP_003309), Nluc orientation C; read-out: Probe EC50
[23] = molecular target: full-length kinase/Nluc fusion proteins (Homo sapiens, UniProt P11309); settings: PIM1, Nluc C; read-out: Probe EC50
[24] = molecular target: full-length kinase/Nluc fusion proteins (Homo sapiens, UniProt Q9BYT3); settings: STK33 (NP_001275990), Nluc orientation N; read-out: Probe EC50
[25] = molecular target: full-length kinase/Nluc fusion proteins (Homo sapiens, UniProt O76039); settings: CDKL5, Nluc N; read-out: Probe EC50
[26] = molecular target: full-length kinase/Nluc fusion proteins (Homo sapiens, UniProt Q12866); settings: MERTK, Nluc C; read-out: Probe EC50
[27] = molecular target: full-length kinase/Nluc fusion proteins (Homo sapiens, UniProt Q9Y463); settings: DYRK1B, Nluc N; read-out: Probe EC50
[28] = molecular target: full-length kinase/Nluc fusion proteins (Homo sapiens, UniProt P16591); settings: FER, Nluc C; read-out: Probe EC50
[29] = molecular target: full-length kinase/Nluc fusion proteins (Homo sapiens, UniProt Q8IWQ3); settings: BRSK2, Nluc N; read-out: Probe EC50
[30] = molecular target: full-length kinase/Nluc fusion proteins (Homo sapiens, UniProt P30291); settings: WEE1 (NP_003381), Nluc orientation C; read-out: Probe EC50
[31] = molecular target: full-length kinase/Nluc fusion proteins (Homo sapiens, UniProt Q2M2I8); settings: AAK1, Nluc N; read-out: Probe EC50
[32] = molecular target: full-length kinase/Nluc fusion proteins (Homo sapiens, UniProt P22455); settings: FGFR4, Nluc C; read-out: Probe EC50

full-length kinase/Nluc fusion proteins (Homo sapiens, UniProt P11362), sequence (P11362 22-822): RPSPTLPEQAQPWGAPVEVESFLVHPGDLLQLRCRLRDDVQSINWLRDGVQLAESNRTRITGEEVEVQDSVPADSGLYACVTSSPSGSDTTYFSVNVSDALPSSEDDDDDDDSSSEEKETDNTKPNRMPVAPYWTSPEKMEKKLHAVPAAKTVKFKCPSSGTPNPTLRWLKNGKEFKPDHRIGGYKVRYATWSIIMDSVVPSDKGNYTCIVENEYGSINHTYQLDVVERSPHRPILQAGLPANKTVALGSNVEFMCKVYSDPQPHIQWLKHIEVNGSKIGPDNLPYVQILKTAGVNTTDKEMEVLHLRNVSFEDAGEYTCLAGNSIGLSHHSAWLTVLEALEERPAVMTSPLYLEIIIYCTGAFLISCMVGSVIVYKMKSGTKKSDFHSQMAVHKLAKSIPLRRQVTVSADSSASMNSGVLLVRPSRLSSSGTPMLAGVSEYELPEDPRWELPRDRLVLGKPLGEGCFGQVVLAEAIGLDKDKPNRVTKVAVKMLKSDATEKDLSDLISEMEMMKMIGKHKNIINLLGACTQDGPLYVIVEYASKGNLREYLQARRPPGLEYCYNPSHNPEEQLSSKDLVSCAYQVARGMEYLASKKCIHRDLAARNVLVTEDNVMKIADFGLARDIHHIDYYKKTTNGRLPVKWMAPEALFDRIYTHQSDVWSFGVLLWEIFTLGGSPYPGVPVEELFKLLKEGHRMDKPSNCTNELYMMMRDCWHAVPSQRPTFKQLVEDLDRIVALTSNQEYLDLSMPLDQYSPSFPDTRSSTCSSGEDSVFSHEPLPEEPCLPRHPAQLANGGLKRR
full-length kinase/Nluc fusion proteins (Homo sapiens, UniProt P52333), sequence (P52333 whole entry, the tested form may be a part): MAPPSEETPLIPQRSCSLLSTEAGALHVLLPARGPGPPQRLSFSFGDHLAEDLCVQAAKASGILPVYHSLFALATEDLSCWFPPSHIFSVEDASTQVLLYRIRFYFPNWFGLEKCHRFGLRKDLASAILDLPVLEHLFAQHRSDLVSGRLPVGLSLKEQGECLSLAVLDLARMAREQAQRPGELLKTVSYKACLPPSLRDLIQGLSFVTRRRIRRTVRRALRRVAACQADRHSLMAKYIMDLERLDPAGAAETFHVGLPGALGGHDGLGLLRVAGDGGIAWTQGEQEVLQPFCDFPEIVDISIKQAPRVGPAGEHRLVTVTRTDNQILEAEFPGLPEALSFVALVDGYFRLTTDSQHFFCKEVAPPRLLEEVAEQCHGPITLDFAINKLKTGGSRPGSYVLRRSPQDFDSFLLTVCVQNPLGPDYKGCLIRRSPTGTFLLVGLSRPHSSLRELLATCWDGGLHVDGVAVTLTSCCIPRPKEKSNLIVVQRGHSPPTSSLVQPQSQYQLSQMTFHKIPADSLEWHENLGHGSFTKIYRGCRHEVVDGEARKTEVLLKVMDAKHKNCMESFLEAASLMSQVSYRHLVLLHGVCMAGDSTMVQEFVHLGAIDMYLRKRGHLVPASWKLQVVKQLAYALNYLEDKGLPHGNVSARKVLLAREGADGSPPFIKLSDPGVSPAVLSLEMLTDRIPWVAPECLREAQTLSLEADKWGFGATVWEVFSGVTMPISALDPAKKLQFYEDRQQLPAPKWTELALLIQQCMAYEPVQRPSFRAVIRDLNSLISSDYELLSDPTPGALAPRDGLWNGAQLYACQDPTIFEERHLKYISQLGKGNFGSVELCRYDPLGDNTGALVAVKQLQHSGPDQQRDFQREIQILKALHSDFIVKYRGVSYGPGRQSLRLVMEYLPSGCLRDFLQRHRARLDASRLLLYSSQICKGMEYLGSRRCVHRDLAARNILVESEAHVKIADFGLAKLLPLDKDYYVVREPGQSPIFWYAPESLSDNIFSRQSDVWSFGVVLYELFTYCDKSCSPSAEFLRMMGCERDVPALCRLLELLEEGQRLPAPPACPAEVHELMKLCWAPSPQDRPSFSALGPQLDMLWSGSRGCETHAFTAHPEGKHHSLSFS
full-length kinase/Nluc fusion proteins (Homo sapiens, UniProt Q2M2I8), sequence (Q2M2I8 whole entry, the tested form may be a part): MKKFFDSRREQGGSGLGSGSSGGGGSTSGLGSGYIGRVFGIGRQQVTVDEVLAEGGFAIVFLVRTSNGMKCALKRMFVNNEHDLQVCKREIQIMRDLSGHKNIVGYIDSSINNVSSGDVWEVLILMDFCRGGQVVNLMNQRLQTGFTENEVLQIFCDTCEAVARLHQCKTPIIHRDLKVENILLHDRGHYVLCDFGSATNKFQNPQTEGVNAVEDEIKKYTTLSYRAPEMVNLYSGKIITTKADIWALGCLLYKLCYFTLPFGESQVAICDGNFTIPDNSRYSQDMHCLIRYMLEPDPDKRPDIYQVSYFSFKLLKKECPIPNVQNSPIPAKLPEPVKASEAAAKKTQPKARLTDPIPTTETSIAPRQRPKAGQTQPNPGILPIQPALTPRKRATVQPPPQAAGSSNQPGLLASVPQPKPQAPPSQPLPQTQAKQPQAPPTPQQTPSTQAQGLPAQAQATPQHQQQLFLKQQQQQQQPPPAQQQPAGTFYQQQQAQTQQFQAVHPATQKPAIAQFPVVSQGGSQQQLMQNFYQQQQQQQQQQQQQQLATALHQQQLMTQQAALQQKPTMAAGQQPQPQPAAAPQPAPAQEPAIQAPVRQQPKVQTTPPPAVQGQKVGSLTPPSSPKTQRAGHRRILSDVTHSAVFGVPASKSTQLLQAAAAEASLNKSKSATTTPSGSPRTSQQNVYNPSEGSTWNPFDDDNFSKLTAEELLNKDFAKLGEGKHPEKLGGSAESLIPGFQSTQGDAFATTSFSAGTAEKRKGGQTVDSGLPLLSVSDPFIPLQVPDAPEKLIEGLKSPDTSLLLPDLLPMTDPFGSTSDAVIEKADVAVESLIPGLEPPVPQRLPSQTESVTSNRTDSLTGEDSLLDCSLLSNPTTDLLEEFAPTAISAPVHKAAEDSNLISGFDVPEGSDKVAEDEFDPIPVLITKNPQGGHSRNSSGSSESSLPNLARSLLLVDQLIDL
full-length kinase/Nluc fusion proteins (Homo sapiens, UniProt Q9BYT3), sequence (Q9BYT3 whole entry, the tested form may be a part): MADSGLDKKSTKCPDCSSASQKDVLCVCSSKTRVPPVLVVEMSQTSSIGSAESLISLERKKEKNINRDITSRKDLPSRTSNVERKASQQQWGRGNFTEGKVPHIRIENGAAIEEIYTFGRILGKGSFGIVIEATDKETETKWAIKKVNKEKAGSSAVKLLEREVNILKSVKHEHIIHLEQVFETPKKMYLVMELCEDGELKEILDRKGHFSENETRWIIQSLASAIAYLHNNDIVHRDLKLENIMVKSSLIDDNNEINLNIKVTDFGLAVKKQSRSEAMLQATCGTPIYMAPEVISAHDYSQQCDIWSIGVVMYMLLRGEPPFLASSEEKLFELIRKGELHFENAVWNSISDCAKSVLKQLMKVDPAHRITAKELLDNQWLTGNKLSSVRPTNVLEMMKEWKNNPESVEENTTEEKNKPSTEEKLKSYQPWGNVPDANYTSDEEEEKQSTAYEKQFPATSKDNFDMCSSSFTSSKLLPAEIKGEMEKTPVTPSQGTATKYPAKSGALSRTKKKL
full-length kinase/Nluc fusion proteins (Homo sapiens, UniProt P16591), sequence (P16591 whole entry, the tested form may be a part): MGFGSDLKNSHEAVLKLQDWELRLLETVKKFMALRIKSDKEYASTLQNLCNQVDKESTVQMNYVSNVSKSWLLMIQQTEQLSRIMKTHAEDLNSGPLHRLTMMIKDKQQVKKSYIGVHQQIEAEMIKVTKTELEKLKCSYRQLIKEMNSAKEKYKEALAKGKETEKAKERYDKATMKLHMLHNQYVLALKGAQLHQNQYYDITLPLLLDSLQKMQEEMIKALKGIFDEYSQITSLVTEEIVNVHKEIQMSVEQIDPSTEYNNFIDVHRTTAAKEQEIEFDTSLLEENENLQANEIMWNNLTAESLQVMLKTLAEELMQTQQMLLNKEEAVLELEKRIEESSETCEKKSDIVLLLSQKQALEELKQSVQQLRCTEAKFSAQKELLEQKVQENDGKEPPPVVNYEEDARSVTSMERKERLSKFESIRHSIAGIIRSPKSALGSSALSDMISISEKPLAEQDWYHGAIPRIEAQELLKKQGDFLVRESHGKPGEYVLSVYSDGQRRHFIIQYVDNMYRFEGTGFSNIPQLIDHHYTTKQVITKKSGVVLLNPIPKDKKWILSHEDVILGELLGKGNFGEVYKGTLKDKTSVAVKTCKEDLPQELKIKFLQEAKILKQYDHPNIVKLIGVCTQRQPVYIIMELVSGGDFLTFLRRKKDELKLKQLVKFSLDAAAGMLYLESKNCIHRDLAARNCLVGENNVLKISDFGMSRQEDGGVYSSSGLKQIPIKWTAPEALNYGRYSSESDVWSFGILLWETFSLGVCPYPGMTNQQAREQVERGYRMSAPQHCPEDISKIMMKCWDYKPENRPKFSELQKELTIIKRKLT
full-length kinase/Nluc fusion proteins (Homo sapiens, UniProt Q8IWQ3), sequence (Q8IWQ3 whole entry, the tested form may be a part): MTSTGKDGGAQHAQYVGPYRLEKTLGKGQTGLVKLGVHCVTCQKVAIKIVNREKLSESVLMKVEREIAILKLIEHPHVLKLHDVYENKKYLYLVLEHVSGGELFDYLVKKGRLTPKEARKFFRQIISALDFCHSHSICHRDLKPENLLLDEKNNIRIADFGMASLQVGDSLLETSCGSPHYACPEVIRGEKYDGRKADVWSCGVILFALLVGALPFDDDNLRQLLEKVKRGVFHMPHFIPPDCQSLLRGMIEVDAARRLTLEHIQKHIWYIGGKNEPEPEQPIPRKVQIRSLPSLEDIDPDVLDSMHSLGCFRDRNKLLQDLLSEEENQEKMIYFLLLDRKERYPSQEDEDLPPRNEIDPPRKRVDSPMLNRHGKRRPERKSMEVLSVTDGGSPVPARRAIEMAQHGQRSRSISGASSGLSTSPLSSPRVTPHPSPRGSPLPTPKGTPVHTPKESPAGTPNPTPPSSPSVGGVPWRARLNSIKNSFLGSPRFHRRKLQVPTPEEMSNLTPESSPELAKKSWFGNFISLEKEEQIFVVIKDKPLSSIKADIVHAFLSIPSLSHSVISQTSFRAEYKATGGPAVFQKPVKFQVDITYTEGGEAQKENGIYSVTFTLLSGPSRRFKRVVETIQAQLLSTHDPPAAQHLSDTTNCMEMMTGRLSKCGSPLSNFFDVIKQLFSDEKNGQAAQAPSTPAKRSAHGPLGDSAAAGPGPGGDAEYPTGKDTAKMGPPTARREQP

In the case of `Cc1nc(Nc2ncc(C(=O)Nc3c(C)cccc3Cl)s2)cc(N2CCN(CCOCCNC(=O)CCc3ccc4n3[B-](F)(F)[N+]3=C(c5ccc[nH]5)C=CC3=C4)CC2)n1` [Energy Transfer Probe 6, 2-((6-(4-(2-(2-aminoethoxy)ethyl)piperazin-1-yl)-2-methylpyrimidin-4-yl)amino)-N-(2-chloro-6-methylphenyl)thiazole-5-carboxamide-NanoBRET 590], the EC50 [1] is reported as 400 nM, the EC50 [2] is reported as 200 nM and the EC50 [3] is reported as > 1000 nM. For the same compound, the EC50 [4] was 200 nM, the EC50 [5] was 200 nM and the EC50 [6] was 300 nM.

`CNC(=O)c1ccccc1Nc1nc(Nc2ccc(N3CCN(C(=O)CCOCCOCCOCCOCCNC(=O)CCc4ccc5n4[B-](F)(F)[N+]4=C(c6ccc[nH]6)C=CC4=C5)CC3)cc2)ncc1Cl` [Energy Transfer Probe 5, 2-((2-((4-(4-(1-amino-3,6,9,12-tetraoxapentadecan-15-oyl)piperazin-1-yl)phenyl)amino)-5-chloropyrimidin-4-yl)amino)-N-methylbenzamide-NanoBRET 590] was tested, and the EC50 [7] was > 1000 nM, the EC50 [8] was 300 nM and the EC50 [9] was > 1000 nM. For the same compound, the EC50 [10] was > 1000 nM, the EC50 [11] was 400 nM and the EC50 [12] was > 1000 nM. For the same compound, the EC50 [13] was > 1000 nM, the EC50 [14] was > 1000 nM and the EC50 [15] was 600 nM. The EC50 [16] was > 1000 nM, the EC50 [17] was > 1000 nM and the EC50 [18] was > 1000 nM. The EC50 [19] was 600 nM, the EC50 [20] was 300 nM and the EC50 [21] was 600 nM. The EC50 [22] was 300 nM, the EC50 [23] was > 1000 nM and the EC50 [24] was 400 nM. The EC50 [25] was > 1000 nM, the EC50 [26] was 300 nM and the EC50 [27] was > 1000 nM. For the same compound, the EC50 [28] was > 1000 nM, the EC50 [29] was > 1000 nM and the EC50 [30] was 50 nM. The EC50 [31] was > 1000 nM and the EC50 [32] was > 1000 nM.
